A flash point compilation (Sun et al. 2020)
Counter-ions that a name gives are not always drawn.

SMILES	flash point [°C]
CCCCCCCCOC(=O)c1ccccc1C(=O)OCCCCCCCC [Di-n-Octyl phthalate]	219.00
CCCCCCC(C)OC(=O)c1ccccc1C(=O)OC(C)CCCCCC (stereo unspecified) [Di-sec-Octyl phthalate]	218.00
OCCOCCO [Diethylene glycol]	124.00
CC(C)c1ccccc1C(C)C [Diisopropyl benzene]	76.00
CS(C)=O [Dimethyl sulphoxide]	95.00
CN(C)C=O [Dimethylformamide]	58.00
c1ccc(Nc2ccccc2)cc1 [Diphenylamine]	153.00
c1ccc(Cc2ccccc2)cc1 [Diphenylmethane]	130.00
CCO [Ethanol]	12.00
CCOC(C)=O [Ethyl acetate]	-4.40
C=CC(=O)OCC [Ethyl acrylate]	16.00
CCCC(=O)OCC [Ethyl butyrate]	26.00
O=CO [Formic acid]	69.00
OCc1ccco1 [Furfuryl alcohol]	75.00
Clc1c(Cl)c(Cl)c(Cl)c(Cl)c1Cl [Hexachlorobenzene]	242.00
CCCCCC [Hexane]	-22.00
COc1ccc(O)cc1 [Hydroquinone monomethyl ether]	131.00
CC(O)C#N (stereo unspecified) [Lactonitrile]	77.00
O=C1C=CC(=O)O1 [Maleic anhydride]	102.00
CC(=O)C=C(C)C [Mesityl oxide]	31.00
COC(C)=O [Methyl acetate]	-9.00
CO [Methyl alcohol]	12.00
CCCCC(C)=O [Methyl butyl ketone]	35.00
COC [Methyl ether]	-41.00
COC=O [Methyl formate]	-19.00
COC(=O)c1ccccc1O [Methyl salicylate]	101.00

SMILES	flash point [°C]
C=COC [Methyl vinyl ether]	-51.00
CN [Monomethylamine]	-10.00
CCN(CC)c1ccccc1 [N,N-Diethylaniline ]	85.00
CCN1CCOCC1 [N-Ethylmorpholine]	32.00
O=[N+]([O-])c1ccccc1 [Nitrobenzene]	88.00
CC[N+](=O)[O-] [Nitroethane]	38.00
CCCCCCCCCc1ccccc1O [Nonyl phenol]	141.00
CCCCCCCC/C=C\CCCCCCCC(=O)O [Oleic acid]	189.00
CC(=O)Oc1ccccc1 [Phenyl acetate]	80.00
c1ccc(Oc2ccccc2)cc1 [Phenyl ether]	96.00
O=C1OC(=O)c2ccccc21 [Phthalic anhydride]	151.00
C1CCNCC1 [Piperidine]	16.00
C#CCO [Propargyl alcohol]	36.00
CC1COC(=O)O1 (stereo unspecified) [Propylene carbonate]	135.00
C=CC [Propylene]	-108.00
O=Cc1ccccc1O [Salicylaldehyde]	78.00
C=Cc1ccccc1 [Styrene]	31.00
N#CCCC#N [Succinonitrile]	132.00
CCCCN(CCCC)CCCC [Tri-n-butyl amine]	86.00
OCCOCCOCCO [Triethylene glycol]	177.00
NCCNCCNCCN [Triethylene-tetramine]	135.00
CCCN(CCC)CCC [Tripropylamine]	41.00
C=COC(C)=O [Vinyl acetate]	-8.00
C=C(Cl)Cl [Vinylidene chloride]	-15.00
O=[N+]([O-])c1cccc2ccccc12 [alpha-Nitronaphthalene]	164.00
